BindingDB's records for doi:10.1021/cb500360c (AstraZeneca, 2014)

Legend:
[1] = molecular target: UDP-N-acetylmuramate--L-alanine ligase (Escherichia coli (strain K12), UniProt P17952); assay: E.coli MurC assay; settings: 25 °C
Protocol: The reactions (25 μL) were carried out in 25 mM Tris-HCl pH 8.0, 10 mM ammonium sulfate, 1.25 mM DTT, 0.002% Brij-35, 10 mM MgCl2, 40 μM UNAM, 100 μM ATP, 40 μM L-alanine and 15 nM enzyme in 384-well plate at 25 C for 50 minutes.

[2] = molecular target: UDP-N-acetylmuramate--L-alanine ligase (Pseudomonas aeruginosa (strain ATCC 15692 / DSM 22644 / CIP 104116 / JCM 14847 / LMG 12228 / 1C / PRS 101 / PAO1), UniProt Q9HW02); assay: P. aeruginosa MurC assay; settings: 25 °C
Protocol: The reactions (50 μL) were carried out in 50 mM Tris-HCl pH 8.0, 20 mM ammonium sulfate, 2.5 mM DTT, 0.002% Brij-35, 1 mM MgCl2, 18 μM UNAM, 38 μM ATP, 28 μM L-alanine, 2 μg/mL Poly uridine nucleic acid, 0.1 μM Polynucleotide Phosphorylase, 0.25X ribogreen and 3 nM enzyme in 384-well plate at 25 C for 60 minutes.

UDP-N-acetylmuramate--L-alanine ligase (Escherichia coli (strain K12), UniProt P17952), sequence (P17952 whole entry): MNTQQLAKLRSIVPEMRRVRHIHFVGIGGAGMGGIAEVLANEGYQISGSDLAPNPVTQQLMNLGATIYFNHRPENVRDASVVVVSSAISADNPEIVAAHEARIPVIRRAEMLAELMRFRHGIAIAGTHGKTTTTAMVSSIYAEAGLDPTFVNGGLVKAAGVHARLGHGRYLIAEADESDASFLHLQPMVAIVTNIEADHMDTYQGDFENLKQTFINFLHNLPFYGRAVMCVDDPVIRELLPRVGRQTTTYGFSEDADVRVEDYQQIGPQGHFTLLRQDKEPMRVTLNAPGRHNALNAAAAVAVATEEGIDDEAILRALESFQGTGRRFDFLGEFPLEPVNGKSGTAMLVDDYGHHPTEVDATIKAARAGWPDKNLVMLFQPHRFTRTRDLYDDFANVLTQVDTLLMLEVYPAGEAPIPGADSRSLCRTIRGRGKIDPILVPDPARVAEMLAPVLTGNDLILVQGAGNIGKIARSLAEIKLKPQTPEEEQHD

| SMILES | IC50 [1] [nM] | IC50 [2] [nM] |
| --- | --- | --- |
| Cn1nc(Nc2nc(NC(CO)C3CCOCC3)nc3n[nH]cc23)cc1C(C)(C)C (stereo unspecified) [2-(4-(5-tert-butyl-1-methyl-1H-pyrazol-3-ylamino)-1H-pyrazolo[3,4-d]pyrimidin-6-ylamino)-2-(tetrahydro-2H-pyran-4-yl)ethanol (8)] | 101 | 11 |
| OCC1CCCCN1c1nc(Nc2cc(C3CC3)[nH]n2)c2cn[nH]c2n1 (stereo unspecified) [(1-(4-(3-cyclopropyl-1H-pyrazol-5-ylamino)-1H-pyrazolo[3,4-d]pyrimidin-6-yl)piperidin-2-yl)methanol (1)] | – | 1000 |
| Cn1nc(Nc2nc(N[C@@H]3c4ccccc4C[C@@H]3O)nc3n[nH]cc23)cc1C(C)(C)C [(1R,2S)-1-(4-(5-tert-butyl-1-methyl-1H-pyrazol-3-ylamino)-1H-pyrazolo[3,4-d]pyrimidin-6-ylamino)-2,3-dihydro-1H-inden-2-ol (13)] | 2 | – |
| Cn1nc(Nc2nc(N[C@H](CO)C3CCCCC3)nc3n[nH]cc23)cc1C(C)(C)C [((S)-2-(4-(5-tert-butyl-1-methyl-1H-pyrazol-3-ylamino)-1H-pyrazolo[3,4-d]pyrimidin-6-ylamino)-2-cyclohexylethanol (7)] | – | 5 |
| COc1cc([C@H](CO)Nc2nc(Nc3cc(C(C)(C)C)n(C)n3)c3c[nH]nc3n2)ccn1 [(R)-2-(4-(5-tert-butyl-1-methyl-1H-pyrazol-3-ylamino)-1H-pyrazolo[3,4-d]pyrimidin-6-ylamino)-2-(2-methoxypyridin-4-yl)ethanol (18)] | 15 | 1.2 |
| Cn1nc(Nc2nc(N[C@@H](CO)C3CCCCC3)nc3n[nH]cc23)cc1C(C)(C)C [(R)-2-(4-(5-tert-butyl-1-methyl-1H-pyrazol-3-ylamino)-1H-pyrazolo[3,4-d]pyrimidin-6-ylamino)-2-cyclohexylethanol (6)] | – | 0.6 |
| Cn1nc(Nc2nc(N[C@@H](CO)c3ccccc3)nc3n[nH]cc23)cc1C(C)(C)C [(R)-2-(4-(5-tert-butyl-1-methyl-1H-pyrazol-3-ylamino)-1H-pyrazolo[3,4-d]pyrimidin-6-ylamino)-2-phenylethanol (10)] | < 5 | 1 |
| Cn1nc(Nc2nc(N[C@@H](COC(=O)NCCN3CCC(=O)N3)c3ccccc3)nc3n[nH]cc23)cc1C(C)(C)C [(R)-2-(4-(5-tert-butyl-1-methyl-1H-pyrazol-3-ylamino)-1H-pyrazolo[3,4-d]pyrimidin-6-ylamino)-2-phenylethyl 2-(3-oxopyrazolidin-1-yl)ethylcarbamate (25)] | 60 | 7 |
| Cn1nc(Nc2nc(N[C@@H](COC(=O)NCCN)c3ccccc3)nc3n[nH]cc23)cc1C(C)(C)C [(R)-2-(4-(5-tert-butyl-1-methyl-1H-pyrazol-3-ylamino)-1H-pyrazolo[3,4-d]pyrimidin-6-ylamino)-2-phenylethyl 2-aminoethylcarbamate (22)] | 4 | 0.7 |
| Cn1nc(Nc2nc(N[C@@H](COC(=O)NCCO)c3ccccc3)nc3n[nH]cc23)cc1C(C)(C)C [(R)-2-(4-(5-tert-butyl-1-methyl-1H-pyrazol-3-ylamino)-1H-pyrazolo[3,4-d]pyrimidin-6-ylamino)-2-phenylethyl 2-hydroxyethylcarbamate (21)] | 3 | 2 |
| CN1C(=O)NC[C@H]1CNC(=O)OC[C@H](Nc1nc(Nc2cc(C(C)(C)C)n(C)n2)c2c[nH]nc2n1)c1ccccc1 [(R)-2-(4-(5-tert-butyl-1-methyl-1H-pyrazol-3-ylamino)-1H-pyrazolo[3,4-d]pyrimidin-6-ylamino)-2-phenylethyl ((S)-3-methyl-2-oxoimidazolidin-4-yl)methylcarbamate (24)] | 3 | < 0.5 |
| Cn1nc(Nc2nc(N[C@@H](COC(=O)NO)c3ccccc3)nc3n[nH]cc23)cc1C(C)(C)C [(R)-2-(4-(5-tert-butyl-1-methyl-1H-pyrazol-3-ylamino)-1H-pyrazolo[3,4-d]pyrimidin-6-ylamino)-2-phenylethyl hydroxycarbamate (20)] | 52 | 6 |
| Cn1nc(Nc2nc(N[C@@H](COC(=O)NCc3cc(=O)c(O)cn3O)c3ccccc3)nc3[nH]ncc23)cc1C(C)(C)C [(R)-2-(4-(5-tert-butyl-1-methyl-1H-pyrazol-3-ylamino)-1H-pyrazolo[3,4-d]pyrimidin-6-ylamino)-2-phenylethyl(1,5-dihydroxy-4-oxo-1,4-dihydropyridin-2-yl)methylcarbamate (23)] | < 1 | 1.3 |
| CC(C)[C@H](CO)Nc1nc(Nc2cc(C(C)(C)C)n(C)n2)c2c[nH]nc2n1 [(R)-2-(4-(5-tert-butyl-1-methyl-1H-pyrazol-3-ylamino)-1H-pyrazolo[3,4-d]pyrimidin-6-ylamino)-3-methylbutan-1-ol (9)] | 188 | 13 |
| Cn1nc(Nc2nc(N[C@@H](CO)c3ccncc3Cl)nc3n[nH]cc23)cc1C(C)(C)C [(R)-2-((4-((5-(tert-butyl)-1-methyl-1H-pyrazol-3-yl)amino)-1H-pyrazolo[3,4-d]pyrimidin-6-yl)amino)-2-(3-chloropyridin-4-yl)ethanol (19)] | 57 | 8 |
| COc1ccc([C@H](CO)Nc2nc(Nc3cc(C(C)(C)C)n(C)n3)c3c[nH]nc3n2)cc1 [(R)-2-((4-((5-(tert-butyl)-1-methyl-1H-pyrazol-3-yl)amino)-1H-pyrazolo[3,4-d]pyrimidin-6-yl)amino)-2-(4-methoxyphenyl)ethanol (16)] | 21 | 4 |
| Cn1nc(Nc2nc(N[C@@H](CO)c3ccccn3)nc3n[nH]cc23)cc1C(C)(C)C [(R)-2-((4-((5-(tert-butyl)-1-methyl-1H-pyrazol-3-yl)amino)-1H-pyrazolo[3,4-d]pyrimidin-6-yl)amino)-2-(pyridin-2-yl)ethanol (14)] | 40 | 8 |
| Cn1nc(Nc2nc(N[C@@H](CO)c3cccnc3)nc3n[nH]cc23)cc1C(C)(C)C [(R)-2-((4-((5-(tert-butyl)-1-methyl-1H-pyrazol-3-yl)amino)-1H-pyrazolo[3,4-d]pyrimidin-6-yl)amino)-2-(pyridin-3-yl)ethanol (15)] | – | 9 |
| Cn1nc(Nc2nc(N[C@@H](COC(=O)N3CCOC(CN)C3)c3ccccc3)nc3n[nH]cc23)cc1C(C)(C)C (stereo partly drawn) [(R)-((R)-2-(4-(5-tert-butyl-1-methyl-1H-pyrazol-3-ylamino)-1H-pyrazolo[3,4-d]pyrimidin-6-ylamino)-2-phenylethyl) 2-(aminomethyl)morpholine-4-carboxylate (26)] | 5 | 0.6 |
| Cc1cc([C@H](CO)Nc2nc(Nc3cc(C(C)(C)C)n(C)n3)c3c[nH]nc3n2)on1 [(S)-2-(4-(5-tert-butyl-1-methyl-1H-pyrazol-3-ylamino)-1H-pyrazolo[3,4-d]pyrimidin-6-ylamino)-2-(3-methylisoxazol-5-yl)ethanol (12)] | 60 | 7 |
| Cn1nc(Nc2nc(N[C@H](CO)c3ccccc3)nc3[nH]ncc23)cc1C(C)(C)C [(S)-2-(4-(5-tert-butyl-1-methyl-1H-pyrazol-3-ylamino)-1H-pyrazolo[3,4-d]pyrimidin-6-ylamino)-2-phenylethanol (11)] | 11 | 8 |
| Cn1nc(Nc2nc(N[C@H](CO)c3cccc(F)c3)nc3n[nH]cc23)cc1C(C)(C)C [(S)-2-((4-((5-(tert-butyl)-1-methyl-1H-pyrazol-3-yl)amino)-1H-pyrazolo[3,4-d]pyrimidin-6-yl)amino)-2-(3-fluorophenyl)ethanol (17)] | 4 | < 0.5 |
| OC[C@@H](Nc1nc(Nc2cc(C3CC3)n[nH]2)c2c[nH]nc2n1)C1CCCCC1 [(S)-2-cyclohexyl-2-(4-(3-cyclopropyl-1H-pyrazol-5-ylamino)-1H-pyrazolo[3,4-d]pyrimidin-6-ylamino)ethanol (2)] | – | 50 |
| CC(C)c1cc(Nc2nc(N[C@H](CO)C3CCCCC3)nc3n[nH]cc23)[nH]n1 [(S)-2-cyclohexyl-2-(4-(5-isopropyl-1H-pyrazol-3-ylamino)-1H-pyrazolo[3,4-d]pyrimidin-6-ylamino)ethanol (3)] | – | 10 |
